Consider five compounds from patent US8101570B2, “Single branch heparin-binding growth factor analogs” (BioSurface Engineering Technologies, Inc., priority 2005, dated 2012).

The subject of assay [1] is M-NSF-60 cells. Description: Augmentation of growth of M-NSF-60 cells in the presence of rhGCSF. It counts as cell-based. Conditions: 0.01 ng rhGCSF, FIG. 9. On the procedure:
This peptide was evaluated for augmentation of growth using M-NSF-60 cells in the presence of 0.01 ng rhGCSF.

Assay [2] concerns C2C12 cells. Description: Alkaline phosphatase assay in C2C12 cells in the presence of recombinant BMP-7. It counts as cell-based, mouse. The following applies: serum low medium containing BMP-7, FIG. 8. How it is done: This peptide was evaluated using C2C12 cells and in the presence of recombinant BMP-7 and using alkaline phosphatase production as an endpoint. Alkaline phosphatase assays were performed using mouse the pluripotent cell lines C2C12. Cells were plated in 96-well (1×10^4/well) plates and allowed 24 hours to attach. The medium was then replaced with a serum low medium containing BMP-7 and/or B7A1-6. After several days, cells were rinsed, lysed, and alkaline phosphatase activity measured using p-nitrophenylphosphate as substrate.

Assay [3] has as its target T1, human PDGF-R-alpha (Homo sapiens, UniProt P16234).
T1 construct: Soluble PDGF receptor, recombinant chimera of human PDGF-R-alpha; purchased R&D Systems
The assay is described as follows: Surface plasmon resonance (BIAcore) binding to immobilized soluble PDGF receptor alpha. Conditions: SPR, 1:1 fit; for kon: read-out: Ka (association rate constant); for koff: read-out: Kd (dissociation rate constant). How it is done: (§1) Surface Plasmon Resonance (SPR) Analysis. Real-time biomolecular interactions were analyzed with a BIAcore 2000 system (Biacore Inc., Piscataway, N.J.). Soluble PDGF receptor, recombinant chimera of human PDGF-R-alpha and PSGF-R-beta (R &D Systems, Minneapolis, Minn.), was immobilized on research grade CM5 chips (Biacore Inc., Piscataway, N.J.). Following activation with EDC/NHS, the receptors were immobilized on activated CM5 chips. To obtain kinetic data, different concentrations of analytes in HBS-EP buffer were injected over the sensor chip at a flow rate of 50 μl/min. Peptide binding was measured in resonance units (RU). At the end of each sample injection (120 s) buffer was passed over the sensor surface to monitor the dissociation phase. Reference responses from blank flow cells were subtracted from receptor-containing flow cells for each analyte injection and the kinetic parameters for each interaction were determined by globally fitting the experimental data to a 1:1 interaction with BIAEVALUATION software (Biacore Inc., Piscataway, N.J.). The association rate constant and the dissociation rate constant (ka and kd, respectively), and the equilibrium dissociation constant (KD) are presented in the Table 3 for the receptors and PBA2-1.
as §1, with “4” for “3”
A general note: In SPR one partner is held on a chip, and binding of the other changes the refractive index at the surface.

The target in assay [4] is T2, PDGF R Beta (Homo sapiens, UniProt P09619).
T2 construct: Soluble PDGF receptor, recombinant chimera of human PDGF-R-alpha and PSGF-R-beta; purchased R&D Systems
T2 sequence (P09619 33-532 limits assumed): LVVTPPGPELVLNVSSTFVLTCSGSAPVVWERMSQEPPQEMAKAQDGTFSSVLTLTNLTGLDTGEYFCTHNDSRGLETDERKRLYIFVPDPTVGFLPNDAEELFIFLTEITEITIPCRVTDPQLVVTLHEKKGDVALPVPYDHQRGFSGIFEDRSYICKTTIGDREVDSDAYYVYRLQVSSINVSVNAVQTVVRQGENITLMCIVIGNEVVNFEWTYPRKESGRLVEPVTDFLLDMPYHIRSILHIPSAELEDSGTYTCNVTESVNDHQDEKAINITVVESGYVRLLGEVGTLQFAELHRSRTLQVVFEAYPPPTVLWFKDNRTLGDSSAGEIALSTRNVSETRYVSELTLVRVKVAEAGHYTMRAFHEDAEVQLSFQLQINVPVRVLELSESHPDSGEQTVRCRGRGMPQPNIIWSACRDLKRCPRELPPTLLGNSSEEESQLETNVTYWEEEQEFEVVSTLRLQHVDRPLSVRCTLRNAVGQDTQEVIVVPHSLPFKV
Description: Surface plasmon resonance (BIAcore) binding to immobilized soluble PDGF receptor beta. Conditions: for kon / koff: SPR, 1:1 fit; for kon: read-out: Ka (association rate constant); for koff: read-out: Kd (dissociation rate constant). How it is done:
as §1
as §1, with “4” for “3”

Assay [5] deals with Sup-T1 cells. The assay is described as follows: Sup-T1 cell proliferation. In kind it is cell-based. Conditions: low serum, 3 days, FIG. 2. How it is done:
Cell proliferation. Sup-T1 cells were obtained from the American Type Culture Collection (Manassas, Va.) and were grown in culture. To monitor the effect of SD1-1 on cell proliferation, Sup-T1 cells were seeded at 100,000 cells per well of a 96-well plate and allowed to attach. The medium was changed to one containing low serum plus SD1-1 and the cells incubated for 3 days after which time the relative cell number was determined using a commercially available kit Referring now to FIG. 2, data in the graph below is reported as the average±SD. Commercially-available recombinant human SDF-1 (diamond) was used as a reference and positive control for comparison of proliferation stimulated by […].

For assay [6], the system named is C2C12 cells. The assay is described as follows: C2C12 cell migration, trans-well insert assay. Conditions: 8 μm pore membrane coated with collagen, FIG. 3. It counts as cell-based. How it is done:
Cell migration. SD1-1 was evaluated for its ability to induce migration of C2C12 cells using a commercially-available cell migration assay. C2C12 cells were seeded on a trans-well insert containing an 8 μm pore size polycarbonate membrane coated with a thin layer of polymerized collagen. The inserts were placed into wells with medium containing SD1-1. Cells that migrated through the membrane were found on the bottom of the insert membrane. These cells were stained, and the stain extracted and detected on a standard microplate reader (560 nm). Referring now to FIG. 3, the results of cell migration in response to the SD1-1 peptide as compared to SDF-1 peptide or control are illustrated. Data is reported as the average±SD.

Like-named read-outs stand apart in the source and are kept apart here. Where a SMILES comes first, the peptide text is derived from it. Bridges are numbered along the chain shown (N, C = ends). Roman numbers before positions name the chains, in order. Where no end group is shown, it is not given here. [ ]: non-standard residue; d: D form. Hx = not defined here; Ahx = NCCCCCC(=O)O

By Kd is commonly meant a measure of binding affinity in units of concentration. Low values mean tighter binding, high ones weaker binding.

T1 sequence (P16234 24-528 limits assumed): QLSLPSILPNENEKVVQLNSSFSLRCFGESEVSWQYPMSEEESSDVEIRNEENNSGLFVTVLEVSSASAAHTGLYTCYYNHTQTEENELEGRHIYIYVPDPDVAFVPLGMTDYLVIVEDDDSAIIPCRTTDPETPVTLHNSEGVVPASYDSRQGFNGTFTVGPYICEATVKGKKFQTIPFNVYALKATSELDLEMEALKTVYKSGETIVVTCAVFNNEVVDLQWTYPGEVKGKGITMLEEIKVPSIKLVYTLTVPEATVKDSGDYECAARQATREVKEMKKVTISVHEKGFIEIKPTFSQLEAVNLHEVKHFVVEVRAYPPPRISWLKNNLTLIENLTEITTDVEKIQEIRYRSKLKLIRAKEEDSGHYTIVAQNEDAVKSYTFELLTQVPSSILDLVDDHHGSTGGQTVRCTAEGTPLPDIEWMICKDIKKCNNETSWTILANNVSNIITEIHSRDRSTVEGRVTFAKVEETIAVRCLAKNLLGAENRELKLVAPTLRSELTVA

Turning to “SFLLKALEQVRKIQYK(SFLLKALEQVRKIQY)HxHxHxRKRKLERIAR-amide (chain 1 SFLLKALEQVRKIQYK-{Hx-Hx-Hx-Arg-Lys-Arg-Lys-Leu-Glu-Arg-Ile-Ala-Arg-NH2}; reading uncertain; also: chain 2 C-terminus branched onto side chain of Lys16 of chain 1, bond at chain A 16 to a chain's C-terminus) [GCSF1]”, the “augmentation of cellular growth” value in assay [1] is listed as “augmented cellular growth”.
Regarding “AISVLYFDDSSNVILKKK(AISVLYFDDSSNVILKK)HxHxHxRKRKLERIAR-amide (chain 1 AISVLYFDDSSNVILKKK-{Hx-Hx-Hx-Arg-Lys-Arg-Lys-Leu-Glu-Arg-Ile-Ala-Arg-NH2}; reading uncertain; also: chain 2 C-terminus branched onto side chain of Lys18 of chain 1, bond at chain A 18 to a chain's C-terminus) [Example B7A1-6]”, the “effect on BMP-7 activity (alkaline phosphatase activity)” value in assay [2] is recorded as “dose-dependant suppression of the activity of BMP-7”.
For the compound `CC[C@H](C)[C@H](NC(=O)[C@H](CCCNC(=N)N)NC(=O)[C@H](CCC(=O)O)NC(=O)[C@H](CC(C)C)NC(=O)[C@H](CCCCN)NC(=O)[C@H](CCCNC(=N)N)NC(=O)[C@H](CCCCN)NC(=O)[C@H](CCCNC(=N)N)NC(=O)CCCCCNC(=O)CCCCCNC(=O)CCCCCNC(=O)[C@H](CCCCNC(=O)[C@H](CCCCN)NC(=O)[C@H](CCCCN)NC(=O)[C@H](CCCNC(=N)N)NC(=O)[C@@H](NC(=O)[C@@H](NC(=O)[C@H](CCC(=O)O)NC(=O)[C@@H](NC(=O)[C@H](CCCCN)NC(=O)[C@H](CCCNC(=N)N)NC(=O)[C@@H](N)C(C)C)[C@@H](C)CC)[C@@H](C)CC)C(C)C)NC(=O)[C@H](CCCCN)NC(=O)[C@H](CCCCN)NC(=O)[C@H](CCCNC(=N)N)NC(=O)[C@@H](NC(=O)[C@@H](NC(=O)[C@H](CCC(=O)O)NC(=O)[C@@H](NC(=O)[C@H](CCCCN)NC(=O)[C@H](CCCNC(=N)N)NC(=O)[C@@H](N)C(C)C)[C@@H](C)CC)[C@@H](C)CC)C(C)C)C(=O)N[C@@H](C)C(=O)N[C@@H](CCCNC(=N)N)C(N)=O` [PBA2-1, VRKIEIVRKKK(VRKIEIVRKK)HxHxHxRKRKLERIAR-amide] (I: H-VRKIEIVRKKK[Ahx][Ahx][Ahx]RKRKLERIAR-NH2 / II: H-VRKIEIVRKK; amide I:11-II:C), the kon in assay [3] (Table 3, PDGF R Alpha) amounted to 198000 M⁻¹ s⁻¹; in assay [3] (Table 4, Alpha), 414000 M⁻¹ s⁻¹; in assay [4] (Table 3, PDGF R Beta), 133000 M⁻¹ s⁻¹; in assay [4] (Table 4, Beta) it was 353000 M⁻¹ s⁻¹. Further, the koff is 0.00336 s⁻¹ in assay [3] (Table 3, PDGF R Alpha); 0.00965 s⁻¹ in assay [3] (Table 4, Alpha); 0.00296 s⁻¹ in assay [4] (Table 3, PDGF R Beta); 0.00714 s⁻¹ in assay [4] (Table 4, Beta). Also, the Kd in assay [4] was 0.0202 µM.
Turning to “KPVSLSYRAPARFFESHVAK(KPVSLSYRAPARFFESHVA)HxHxHxRKRKLERIAR-amide [SD1-1]”, the “cell proliferation (relative cell number)” value in assay [5] is listed as “concentration dependent induction of cell proliferation”. Further, the cell migration result in assay [6] was “induced cell migration”.
The like results for “SDF-1: Commercially-available recombinant human SDF-1 used as a reference and positive control [reference compound]” were, in that order, “concentration dependent induction of cell proliferation” and “induced cell migration”.
